The values that follow are results of earlier work, collected in patent US20240130871A1, “DRUG-COATED ENDOVASCULAR DEVICES” (UNIVERSITY OF SOUTH CAROLINA, priority 2022, published 2024).

The conditions of the data set: current DCB devices.

`CC(=O)O[C@H]1C(=O)[C@@]2(C)[C@H]([C@H](OC(=O)c3ccccc3)[C@]3(O)C[C@H](OC(=O)[C@H](O)[C@@H](NC(=O)c4ccccc4)c4ccccc4)C(C)=C1C3(C)C)[C@]1(OC(C)=O)CO[C@@H]1C[C@@H]2O` [PTX, paclitaxel]: the “delivered PTX lost to systemic circulation” value was more than 90%.
